Results: patent publication US11168095B2, “ASK1 inhibiting agents” (BIOGEN MA INC., priority 2017, dated 2021)
Like-named read-outs stand apart in the source and are kept apart here.

What was measured:
[1] = target: GST-hASK1 (Homo sapiens (Human), UniProt Q99683); test: ASK1 TR-FRET assay; format: biochemical; conditions: 5 nM GST-hASK1, 100 μM ATP, 2 μM STK Substrate 3
Description: The protein kinase activity of 5 nM GST-hASK1(Life Technologies PV4011) was assayed with 100 μM ATP and 2 μM of HTRF biotinylated STK Substrate 3 (CisBio Kit 62ST3PEJ), at ambient temperature in 25 mM Hepes, pH 7.5, 50 mM NaCl, 10 mM MgCl2, 0.02% Brij-35, 1 mM DTT, and 1% DMSO.
After a 10 minute pre-incubation, ASK1 protein kinase activity was initiated by addition of 10 μL of 300 μM ATP.

[2] = target: ASK1 T838 auto phosphorylation in HEK-293T cells (Homo sapiens (Human), UniProt Q99683); test: ASK1 (AUTO PHOS T838) assay, MSD format; format: cell-based; conditions: HEK 293T cells transfected with ASK1-V5 full length plasmid, compounds 1 hr at 37° C.; read-out: IC50
[3] = target: ASK1/MAP3K5 (Homo sapiens (Human), UniProt Q99683); test: ASK1/MAP3K5 assay by Reaction Biology Corp.; format: biochemical
Description: ASK1/MAP3K5 was used as the protein kinase and 20 μM of myelin basic protein (MBP) and 10 μM ATP were used as the substrate.

[4] = 20 μM myelin basic protein (MBP), 10 μM ATP

Sequence of GST-hASK1 (Q99683 649-946): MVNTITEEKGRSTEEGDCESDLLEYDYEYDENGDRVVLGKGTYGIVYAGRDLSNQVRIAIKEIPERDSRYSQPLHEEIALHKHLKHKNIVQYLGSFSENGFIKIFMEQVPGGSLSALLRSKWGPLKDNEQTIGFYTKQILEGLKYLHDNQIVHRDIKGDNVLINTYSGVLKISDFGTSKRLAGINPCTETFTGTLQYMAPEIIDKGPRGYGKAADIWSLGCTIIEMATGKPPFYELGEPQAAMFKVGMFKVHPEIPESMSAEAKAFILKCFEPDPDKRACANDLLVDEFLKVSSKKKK
Sequence of ASK1/MAP3K5 (Q99683 whole entry): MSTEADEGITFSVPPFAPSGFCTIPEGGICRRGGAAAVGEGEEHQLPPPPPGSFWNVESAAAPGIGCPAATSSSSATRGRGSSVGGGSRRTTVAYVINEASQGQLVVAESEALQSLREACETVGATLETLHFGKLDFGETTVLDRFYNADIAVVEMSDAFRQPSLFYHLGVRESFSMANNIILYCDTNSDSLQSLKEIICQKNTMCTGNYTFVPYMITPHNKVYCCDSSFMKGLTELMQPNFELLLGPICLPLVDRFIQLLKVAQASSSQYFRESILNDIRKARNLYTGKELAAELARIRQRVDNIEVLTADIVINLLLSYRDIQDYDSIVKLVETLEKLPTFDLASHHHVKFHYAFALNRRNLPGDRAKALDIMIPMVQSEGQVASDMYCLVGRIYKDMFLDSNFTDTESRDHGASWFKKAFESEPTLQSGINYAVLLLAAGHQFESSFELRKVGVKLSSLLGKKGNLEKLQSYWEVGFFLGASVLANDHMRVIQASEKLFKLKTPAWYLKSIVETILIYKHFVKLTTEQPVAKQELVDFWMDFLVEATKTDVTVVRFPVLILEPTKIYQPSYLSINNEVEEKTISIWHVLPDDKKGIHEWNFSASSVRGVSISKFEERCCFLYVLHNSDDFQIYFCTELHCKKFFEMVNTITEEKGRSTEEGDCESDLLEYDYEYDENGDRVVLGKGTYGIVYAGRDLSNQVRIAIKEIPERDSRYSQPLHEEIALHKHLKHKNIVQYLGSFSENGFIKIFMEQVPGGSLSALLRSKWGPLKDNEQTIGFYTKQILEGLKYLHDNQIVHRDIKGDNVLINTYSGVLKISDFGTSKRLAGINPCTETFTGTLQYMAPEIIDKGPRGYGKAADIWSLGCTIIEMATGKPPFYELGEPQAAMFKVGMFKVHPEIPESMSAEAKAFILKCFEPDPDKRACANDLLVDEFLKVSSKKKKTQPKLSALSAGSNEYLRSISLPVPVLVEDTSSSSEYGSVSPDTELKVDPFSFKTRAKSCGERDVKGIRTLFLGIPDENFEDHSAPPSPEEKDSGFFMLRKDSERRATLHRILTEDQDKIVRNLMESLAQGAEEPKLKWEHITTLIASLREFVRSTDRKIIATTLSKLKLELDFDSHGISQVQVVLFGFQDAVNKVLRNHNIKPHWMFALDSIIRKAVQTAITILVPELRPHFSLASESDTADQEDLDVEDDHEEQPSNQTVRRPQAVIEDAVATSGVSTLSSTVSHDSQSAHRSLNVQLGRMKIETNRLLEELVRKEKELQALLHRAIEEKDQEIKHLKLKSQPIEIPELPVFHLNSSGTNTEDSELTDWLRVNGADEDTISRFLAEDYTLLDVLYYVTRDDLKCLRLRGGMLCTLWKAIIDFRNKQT
Sequence of ASK1 T838 auto phosphorylation in HEK-293T cells (Q99683 whole entry): as above

Molecule | IC50 [1] | IC50 [2] | IC50 [3, 4] | IC50 [3]
Cn1cc(-c2ccc3c(c2)C(=O)Nc2cccc(n2)-c2nncn2CCCCO3)nn1 [Example 30, 5^5-(1-Methyl-1H-1,2,3-triazol-4-yl)-1^4H-6-oxa-3-aza-2(2,6)-pyridina-1(3,4)-triazola-5(1,2)-benzenacyclodecaphan-4-one] | < 100 nM | 1000 to 10000 nM | – | –
O=C1Nc2cccc(n2)-c2nncn2CCCCOc2ccc(C(=O)N3CCCC3)cc21 [Example 31, 5^5-(Pyrrolidine-1-carbonyl)-1^4H-6-oxa-3-aza-2(2,6)-pyridina-1(3,4)-triazola-5(1,2)-benzenacyclodecaphan-4-one] | 100 to 1000 nM | – | – | –
C[C@@H]1CCCOc2ccc(-c3cnn(C)c3)cc2C(=O)Nc2cccc(n2)-c2nncn21 [Example 95, (R)-10-Methyl-5^5-(1-methyl-1H-pyrazol-4-yl)-1^4H-6-oxa-3-aza-2(2,6)-pyridina-1(3,4)-triazola-5(1,2)-benzenacyclodecaphan-4-one] | 100 to 1000 nM | 1000 to 10000 nM | – | –
Cc1cn(-c2ccc3c(c2)C(=O)Nc2cccc(n2)-c2nncn2CCC[C@H](C)O3)cn1 [Example 148, (S)-7-Methyl-5^5-(4-methyl-1H-imidazol-1-yl)-1^4H-6-oxa-3-aza-2(2,6)-pyridina-1(3,4)-triazola-5(1,2)-benzenacyclodecaphan-4-one] | – | < 1000 nM | – | < 100 nM
Cc1cn(-c2ccc3c(c2)C(=O)Nc2cccc(n2)-c2nncn2CCC[C@@H](C)O3)cn1 [Example 149, (R)-7-Methyl-5^5-(4-methyl-1H-imidazol-1-yl)-1^4H-6-oxa-3-aza-2(2,6)-pyridina-1(3,4)-triazola-5(1,2)-benzenacyclodecaphan-4-one] | – | < 1000 nM | – | < 100 nM
O=C1Nc2cccc(n2)-c2nncn2CCCCOc2c(Br)cccc21 [Example 165, 5^3-Bromo-1^4H-6-oxa-3-aza-2(2,6)-pyridina-1(3,4)-triazola-5(1,2)-benzenacyclodecaphan-4-one] | – | 1000 to 10000 nM | 100 to 1000 nM | –
O=C1Nc2cccc(n2)-c2nncn2C/C=C/COc2ccc(N3CCOCC3)cc21 [Example 168, (E)-5^5-Morpholino-1^4H-6-oxa-3-aza-2(2,6)-pyridina-1(3,4)-triazola-5(1,2)-benzenacyclodecaphan-8-en-4-one] | – | < 1000 nM | – | < 100 nM
O=C1Nc2cccc(n2)-c2nncn2CCCCCOc2ccc(Br)cc21 [Example 170, 5^5-Bromo-1^4H-6-oxa-3-aza-2(2,6)-pyridina-1(3,4)-triazola-5(1,2)-benzenacycloundecaphan-4-one] | < 100 nM | – | – | –
O=C1Nc2cccc(n2)-c2nncn2C/C=C\CCOc2cc(F)c(Br)cc21 [Example 176, (E)-5^5-Bromo-5^4-fluoro-1^4H-6-oxa-3-aza-2(2,6)-pyridina-1(3,4)-triazola-5(1,2)-benzenacycloundecaphan-9-en-4-one] | – | 1000 to 10000 nM | < 100 nM | –
O=C1Nc2cccc(n2)-c2nncn2C/C=C/CCOc2cc(F)c(Br)cc21 [Example 177, (Z)-5^5-Bromo-5^4-fluoro-1^4H-6-oxa-3-aza-2(2,6)-pyridina-1(3,4)-triazola-5(1,2)-benzenacycloundecaphan-9-en-4-one] | – | 1000 to 10000 nM | < 100 nM | –
O=C1Nc2cccc(n2)-c2nncn2C/C=C\CCOc2cc(F)c(-c3ccncc3)cc21 [Example 180, (Z)-5^4-Fluoro-5^5-(pyridin-4-yl)-1^4H-6-oxa-3-aza-2(2,6)-pyridina-1(3,4)-triazola-5(1,2)-benzenacycloundecaphan-9-en-4-one] | – | < 1000 nM | < 100 nM | –
O=C1Nc2cccc(n2)-c2nncn2C/C=C\CCOc2cc(F)c(N3CCOCC3)cc21 [Example 181, (Z)-5^4-Fluoro-5^5-morpholino-1^4H-6-oxa-3-aza-2(2,6)-pyridina-1(3,4)-triazola-5(1,2)-benzenacycloundecaphan-9-en-4-one] | – | < 1000 nM | < 100 nM | –
O=C1Nc2cccc(n2)-c2nncn2CCCOc2ccc(Br)cc21 [Example 183, 5^5-Bromo-1^4H-6-oxa-3-aza-2(2,6)-pyridina-1(3,4)-triazola-5(1,2)-benzenacyclononaphan-4-one] | 1000 to 10000 nM | – | – | –
O=C1Nc2cccc(n2)-c2nncn2CCCOc2ccc(N3CCOCC3)cc21 [Example 184, 5^5-Morpholino-1^4H-6-oxa-3-aza-2(2,6)-pyridina-1(3,4)-triazola-5(1,2)-benzenacyclononaphan-4-one] | 100 to 1000 nM | – | – | –
(R)-5^4-Bromo-10-methyl-1^4H-6-oxa-3-aza-2(2,6)-pyridina-1(3,4)-triazola-5(1,2)-benzenacyclodecaphan-4-one [Example 121] | – | > 10000 nM | 1000 to 10000 nM | –
(S)-5^4-Bromo-10-methyl-1^4H-6-oxa-3-aza-2(2,6)-pyridina-1(3,4)-triazola-5(1,2)-benzenacyclodecaphan-4-one [Example 120] | – | < 1000 nM | < 100 nM | –

Second part, led by results:

IC50 [1] | IC50 [2] | IC50 [3, 4] | Molecule | IC50 [3]
< 100 nM | < 1000 nM | – | O=C1Nc2cccc(n2)-c2nncn2CCCCOc2ccc(N3CC4CCC(C3)O4)cc21 [Example 7, 5^5-(8-Oxa-3-azabicyclo[3.2.1]octan-3-yl)-1^4H-6-oxa-3-aza-2(2,6)-pyridina-1(3,4)-triazola-5(1,2)-benzenacyclodecaphan-4-one] | –
< 100 nM | < 1000 nM | – | CCN1CCN(c2ccc3c(c2)C(=O)Nc2cccc(n2)-c2nncn2CCCCO3)CC1 [Example 13, 5^5-(4-Ethylpiperazin-1-yl)-1^4H-6-oxa-3-aza-2(2,6)-pyridina-1(3,4)-triazola-5(1,2)-benzenacyclodecaphan-4-one] | –
< 100 nM | < 1000 nM | – | O=C1Nc2cccc(n2)-c2nncn2CCCCOc2ccc(C3=CCOC3)cc21 [Example 14, 5^5-(2,5-Dihydrofuran-3-yl)-1^4H-6-oxa-3-aza-2(2,6)-pyridina-1(3,4)-triazola-5(1,2)-benzenacyclodecaphan-4-one] | –
< 100 nM | < 1000 nM | – | O=C1Nc2cccc(n2)-c2nncn2CCCCOc2ccc(C3=CCOCC3)cc21 [Example 16, 5^5-(3,6-Dihydro-2H-pyran-4-yl)-1^4H-6-oxa-3-aza-2(2,6)-pyridina-1(3,4)-triazola-5(1,2)-benzenacyclodecaphan-4-one] | –
< 100 nM | < 1000 nM | – | C=Cc1ccc2c(c1)C(=O)Nc1cccc(n1)-c1nncn1CCCCO2 [Example 19, 5^5-Vinyl-1^4H-6-oxa-3-aza-2(2,6)-pyridina-1(3,4)-triazola-5(1,2)-benzenacyclodecaphan-4-one] | –
– | < 1000 nM | < 100 nM | C[C@@H]1CCCn2cnnc2-c2cccc(n2)NC(=O)c2cc(-c3ccncc3)ccc2O1 [Example 145, (R)-7-Methyl-5^5-(pyridin-4-yl)-1^4H-6-oxa-3-aza-2(2,6)-pyridina-1(3,4)-triazola-5(1,2)-benzenacyclodecaphan-4-one] | –
– | < 1000 nM | < 100 nM | C[C@H]1CCCn2cnnc2-c2cccc(n2)NC(=O)c2cc(-c3cnn(CCN(C)C)c3)ccc2O1 [Example 146, (S)-5^5-(1-(2-(Dimethylamino)ethyl)-1H-pyrazol-4-yl)-7-methyl-1^4H-6-oxa-3-aza-2(2,6)-pyridina-1(3,4)-triazola-5(1,2)-benzenacyclodecaphan-4-one] | –
– | < 1000 nM | < 100 nM | C[C@@H]1CCCn2cnnc2-c2cccc(n2)NC(=O)c2cc(-c3cnn(CCN(C)C)c3)ccc2O1 [Example 147, (R)-5^5-(1-(2-(Dimethylamino)ethyl)-1H-pyrazol-4-yl)-7-methyl-1^4H-6-oxa-3-aza-2(2,6)-pyridina-1(3,4)-triazola-5(1,2)-benzenacyclodecaphan-4-one] | –
– | < 1000 nM | 100 to 1000 nM | C[C@H]1CCCn2cnnc2-c2cccc(n2)NC(=O)c2cc(C#N)ccc2O1 [Example 150, (S)-7-Methyl-4-oxo-1^4H-6-oxa-3-aza-2(2,6)-pyridina-1(3,4)-triazola-5(1,2)-benzenacyclodecaphane-5^5-carbonitrile] | –
– | < 1000 nM | < 100 nM | C[C@@H]1CCCn2cnnc2-c2cccc(n2)NC(=O)c2cc(C#N)ccc2O1 [Example 151, (R)-7-Methyl-4-oxo-1^4H-6-oxa-3-aza-2(2,6)-pyridina-1(3,4)-triazola-5(1,2)-benzenacyclodecaphane-5^5-carbonitrile] | –
– | < 1000 nM | < 100 nM | O=C1Nc2cccc(n2)-c2nncn2C/C=C\CCOc2ccccc21 [Example 174, (E)-1^4H-6-Oxa-3-aza-2(2,6)-pyridina-1(3,4)-triazola-5(1,2)-benzenacycloundecaphan-9-en-4-one] | –
– | < 1000 nM | < 100 nM | O=C1Nc2cccc(n2)-c2nncn2C/C=C/CCOc2ccccc21 [Example 175, (Z)-1^4H-6-oxa-3-aza-2(2,6)-pyridina-1(3,4)-triazola-5(1,2)-benzenacycloundecaphan-9-en-4-one] | –
– | < 1000 nM | < 100 nM | CN(C)CCn1cc(-c2cc3c(cc2F)OCC/C=C/Cn2cnnc2-c2cccc(n2)NC3=O)cn1 [Example 178, (E)-5^5-(1-(2-(Dimethylamino)ethyl)-1H-pyrazol-4-yl)-5^4-fluoro-1^4H-6-oxa-3-aza-2(2,6)-pyridina-1(3,4)-triazola-5(1,2)-benzenacycloundecaphan-9-en-4-one] | –
– | < 1000 nM | < 100 nM | CN(C)CCn1cc(-c2cc3c(cc2F)OCC/C=C\Cn2cnnc2-c2cccc(n2)NC3=O)cn1 [Example 179, (Z)-5^5-(1-(2-(Dimethylamino)ethyl)-1H-pyrazol-4-yl)-5^4-fluoro-1^4H-6-oxa-3-aza-2(2,6)-pyridina-1(3,4)-triazola-5(1,2)-benzenacycloundecaphan-9-en-4-one] | –
